Source: PubChem BioAssay AID1918940 (Molecular Pharmacology Branch, DTP, NCI, 2023)
Values joined by “and” are separate entries in the source; they are usually repeats but may differ in a detail not shown here. Equal values may be shown once.

Test system: NCI-H211 complex spheroid viability
Assay: Anticancer human tumor NCI-H211 cell line growth inhibition [LSD1];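 also: luminescent viability read after seven days of drug exposure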;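 as to viability, T/C: 100% = DMSO vehicle control viability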
Conditions: for viability, T/C: stronger effect = lower value; active = viability on the fitted dose curve at most 10% of control; inactive = the rest
In short: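 Complex spheroids of tumor cells with HUVEC and human MSCs, exposed to iadademstat combined with other agents. Each agent tested in half-log steps from near clinical Cmax (else 10 microM top), DMSO ≤0.25%.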

[1] = curve of first compound, second compound 0.1 µM
[2] = curve of first compound, second compound 0.316 µM
[3] = curve of first compound, second compound 1 µM
[4] = curve of first compound, second compound 3.16 µM
[5] = curve of first compound, second compound 10 µM
[6] = second compound 0.1 µM, first compound 0.0316 µM
[7] = second compound 0.1 µM, first compound 0.1 µM
[8] = second compound 0.1 µM, first compound 0.316 µM
[9] = second compound 0.1 µM, first compound 1 µM
[10] = second compound 0.1 µM, first compound 3.16 µM
[11] = second compound 0.1 µM, first compound 10 µM
[12] = second compound 0.316 µM, first compound 0.0316 µM
[13] = second compound 0.316 µM, first compound 0.1 µM
[14] = second compound 0.316 µM, first compound 0.316 µM
[15] = second compound 0.316 µM, first compound 1 µM
[16] = second compound 0.316 µM, first compound 3.16 µM
[17] = second compound 0.316 µM, first compound 10 µM
[18] = second compound 1 µM, first compound 0.0316 µM
[19] = second compound 1 µM, first compound 0.1 µM
[20] = second compound 1 µM, first compound 0.316 µM
[21] = second compound 1 µM, first compound 1 µM
[22] = second compound 1 µM, first compound 3.16 µM
[23] = second compound 1 µM, first compound 10 µM
[24] = second compound 3.16 µM, first compound 0.0316 µM
[25] = second compound 3.16 µM, first compound 0.1 µM
[26] = second compound 3.16 µM, first compound 0.316 µM
[27] = second compound 3.16 µM, first compound 1 µM
[28] = second compound 3.16 µM, first compound 3.16 µM
[29] = second compound 3.16 µM, first compound 10 µM
[30] = second compound 10 µM, first compound 0.0316 µM
[31] = second compound 10 µM, first compound 0.1 µM
[32] = second compound 10 µM, first compound 0.316 µM
[33] = second compound 10 µM, first compound 1 µM
[34] = second compound 10 µM, first compound 3.16 µM
[35] = second compound 10 µM, first compound 10 µM
[36] = second compound 0.1 µM, first compound 0.00949 µM
[37] = second compound 0.1 µM, first compound 0.03 µM
[38] = second compound 0.1 µM, first compound 0.0949 µM
[39] = second compound 0.1 µM, first compound 0.3 µM
[40] = second compound 0.316 µM, first compound 0.00949 µM
[41] = second compound 0.316 µM, first compound 0.03 µM
[42] = second compound 0.316 µM, first compound 0.0949 µM
[43] = second compound 0.316 µM, first compound 0.3 µM
[44] = second compound 1 µM, first compound 0.00949 µM
[45] = second compound 1 µM, first compound 0.03 µM
[46] = second compound 1 µM, first compound 0.0949 µM
[47] = second compound 1 µM, first compound 0.3 µM
[48] = second compound 3.16 µM, first compound 0.00949 µM
[49] = second compound 3.16 µM, first compound 0.03 µM
[50] = second compound 3.16 µM, first compound 0.0949 µM
[51] = second compound 3.16 µM, first compound 0.3 µM
[52] = second compound 10 µM, first compound 0.00949 µM
[53] = second compound 10 µM, first compound 0.03 µM
[54] = second compound 10 µM, first compound 0.0949 µM
[55] = second compound 10 µM, first compound 0.3 µM
[56] = second compound 0.1 µM, first compound 0.000949 µM
[57] = second compound 0.1 µM, first compound 0.003 µM
[58] = second compound 0.316 µM, first compound 0.000949 µM
[59] = second compound 0.316 µM, first compound 0.003 µM
[60] = second compound 1 µM, first compound 0.000949 µM
[61] = second compound 1 µM, first compound 0.003 µM
[62] = second compound 3.16 µM, first compound 0.000949 µM
[63] = second compound 3.16 µM, first compound 0.003 µM
[64] = second compound 10 µM, first compound 0.000949 µM
[65] = second compound 10 µM, first compound 0.003 µM

CC1COCCN1c1cc(C2(S(C)(=N)=O)CC2)nc(-c2ccnc3[nH]ccc23)n1 (centres undefined) + NC1CCC(NC2CC2c2ccccc2)CC1
184 nM: IC50 [2]
297 nM: IC50 [3]
active: viability, T/C [10] 3.34% | viability, T/C [11] 2.31% | viability, T/C [16] 3.19% | viability, T/C [17] 2.33% | viability, T/C [22] 3.53% | viability, T/C [23] 2.09% | viability, T/C [28] 2.59% | viability, T/C [29] 1.55% | viability, T/C [34] 1.75% | viability, T/C [35] 1.04%
< 31.6 nM: IC50 [5]
331 nM: IC50 [1]
inactive: viability, T/C [6] 67.7% | viability, T/C [7] 64.1% | viability, T/C [8] 51.6% | viability, T/C [9] 16.1% | viability, T/C [12] 79.6% | viability, T/C [13] 63% | viability, T/C [14] 38.7% | viability, T/C [15] 13.6% | viability, T/C [18] 66.4% | viability, T/C [19] 67.5% | viability, T/C [20] 48.4% | viability, T/C [21] 16.4% | viability, T/C [24] 66.5% | viability, T/C [25] 55.5% | viability, T/C [26] 44.5% | viability, T/C [27] 17.2% | viability, T/C [30] 40.9% | viability, T/C [31] 39% | viability, T/C [32] 25.4% | viability, T/C [33] 9.13%
188 nM: IC50 [4]

CC1(C)CCC(CN2CCN(c3ccc(C(=O)NS(=O)(=O)c4ccc(NCC5CCOCC5)c([N+](=O)[O-])c4)c(Oc4cnc5[nH]ccc5c4)c3)CC2)=C(c2ccc(Cl)cc2)C1 + NC1CCC(NC2CC2c2ccccc2)CC1
inactive: viability, T/C [6] 55.3% | viability, T/C [7] 61.6% | viability, T/C [8] 73.5% | viability, T/C [9] 102% | viability, T/C [10] 86.2% | viability, T/C [11] 26.8% | viability, T/C [12] 64.8% | viability, T/C [13] 60.5% | viability, T/C [14] 71.2% | viability, T/C [15] 84.1% | viability, T/C [16] 101% | viability, T/C [17] 26% | viability, T/C [18] 48.6% | viability, T/C [19] 59% | viability, T/C [20] 57.6% | viability, T/C [21] 81.3% | viability, T/C [22] 93.5% | viability, T/C [23] 24.7% | viability, T/C [24] 41.9% | viability, T/C [25] 44.4% | viability, T/C [26] 57.9% | viability, T/C [27] 75.1% | viability, T/C [28] 88.4% | viability, T/C [29] 21.1% | viability, T/C [30] 25.1% | viability, T/C [31] 24.9% | viability, T/C [32] 30% | viability, T/C [33] 33.8% | viability, T/C [34] 52.6% | viability, T/C [35] 19.8%
> 10000 nM: IC50 [3]
< 31.6 nM: IC50 [4] | IC50 [5]
5790 nM: IC50 [1]
5770 nM: IC50 [2]

CC1COCCN1c1cc(C2(S(C)(=N)=O)CC2)nc(-c2ccnc3[nH]ccc23)n1 (centres undefined)
active: viability, T/C (compound 3.16 µM) 4.23% and 5.02% | viability, T/C (compound 10 µM) 2.56% and 2.74%
299 nM and 405 nM: IC50 (curve of compound)
inactive: viability, T/C (compound 0.0316 µM) 84.3% and 102% | viability, T/C (compound 0.1 µM) 72.6% and 81.8% | viability, T/C (compound 0.316 µM) 49.4% and 63.4% | viability, T/C (compound 1 µM) 20.4% and 14.6%

CC1COCCN1c1cc(-c2ccnn2C)c2ccnc(-c3ccn[nH]3)c2n1 (centres undefined)
inactive: viability, T/C (compound 0.00316 µM) 68.4% and 38.3% | viability, T/C (compound 0.01 µM) 21.5% and 14%
active: viability, T/C (compound 0.0316 µM) 4.05% and 7.88% | viability, T/C (compound 0.1 µM) 2.34% and 6.02% | viability, T/C (compound 0.316 µM) 2.16% and 5.04% | viability, T/C (compound 1 µM) 2.28% and 5.77%
4.96 nM and < 3.16 nM: IC50 (curve of compound)

Nc1ccccc1NC(=O)c1ccc(CNC(=O)OCc2cccnc2)cc1 + NC1CC1c1ccc(-c2cccc(O)c2)cc1
12 nM: IC50 [5]
12.2 nM: IC50 [1]
< 9.49 nM: IC50 [2] | IC50 [3] | IC50 [4]
inactive: viability, T/C [36] 56.5% | viability, T/C [37] 26.4% | viability, T/C [40] 46.8% | viability, T/C [41] 18.2% | viability, T/C [44] 45.8% | viability, T/C [45] 25.1% | viability, T/C [48] 43.4% | viability, T/C [49] 24.5% | viability, T/C [52] 53.6% | viability, T/C [53] 36.1%
active: viability, T/C [38] 4.02% | viability, T/C [39] 1.9% | viability, T/C (second compound 0.1 µM, first compound 0.949 µM) 1.18% | viability, T/C (second compound 0.1 µM, first compound 3 µM) 0.14% | viability, T/C [42] 4.2% | viability, T/C [43] 2.36% | viability, T/C (second compound 0.316 µM, first compound 0.949 µM) 1.27% | viability, T/C (second compound 0.316 µM, first compound 3 µM) 0.1% | viability, T/C [46] 3.68% | viability, T/C [47] 2.02% | viability, T/C (second compound 1 µM, first compound 0.949 µM) 1.28% | viability, T/C (second compound 1 µM, first compound 3 µM) 0.1% | viability, T/C [50] 4.34% | viability, T/C [51] 3.1% | viability, T/C (second compound 3.16 µM, first compound 0.949 µM) 1.14% | viability, T/C (second compound 3.16 µM, first compound 3 µM) 0.14% | viability, T/C [54] 5.02% | viability, T/C [55] 2.76% | viability, T/C (second compound 10 µM, first compound 0.949 µM) 0.95% | viability, T/C (second compound 10 µM, first compound 3 µM) 0.16%

Nc1ncn(C2CC(O)C(CO)S2)c(=O)n1 (centres undefined) + NC1CC1c1ccc(-c2cccc(O)c2)cc1
inactive: viability, T/C [56] 35.2% | viability, T/C [57] 20.8% | viability, T/C [58] 35.8% | viability, T/C [59] 16.6% | viability, T/C [60] 40.5% | viability, T/C [61] 17.2% | viability, T/C [62] 31.3% | viability, T/C [63] 15.9% | viability, T/C [64] 32.3% | viability, T/C [65] 16.6%
active: viability, T/C [36] 9.36% | viability, T/C [37] 4.53% | viability, T/C [38] 4.25% | viability, T/C [39] 5.78% | viability, T/C [40] 8.03% | viability, T/C [41] 5.12% | viability, T/C [42] 5.19% | viability, T/C [43] 5.71% | viability, T/C [44] 8.75% | viability, T/C [45] 4.16% | viability, T/C [46] 4.46% | viability, T/C [47] 6.59% | viability, T/C [48] 8.59% | viability, T/C [49] 5.64% | viability, T/C [50] 5.95% | viability, T/C [51] 4.49% | viability, T/C [52] 8.49% | viability, T/C [53] 6.66% | viability, T/C [54] 5.5% | viability, T/C [55] 6.65%
< 0.949 nM: IC50 [1] | IC50 [2] | IC50 [3] | IC50 [4] | IC50 [5]

Nc1ncn(C2CC(O)C(CO)S2)c(=O)n1 (centres undefined) + NC1CCC(NC2CC2c2ccccc2)CC1
< 0.949 nM: IC50 [1] | IC50 [4] | IC50 [5]
1.19 nM: IC50 [2]
active: viability, T/C [36] 8.74% | viability, T/C [37] 3.26% | viability, T/C [38] 1.8% | viability, T/C [39] 1.91% | viability, T/C [41] 3.64% | viability, T/C [42] 2.15% | viability, T/C [43] 1.98% | viability, T/C [44] 8.75% | viability, T/C [45] 3.07% | viability, T/C [46] 2.09% | viability, T/C [47] 1.41% | viability, T/C [48] 7.85% | viability, T/C [49] 2.42% | viability, T/C [50] 1.84% | viability, T/C [51] 1.65% | viability, T/C [65] 9.03% | viability, T/C [52] 3.09% | viability, T/C [53] 1.41% | viability, T/C [54] 0.7% | viability, T/C [55] 0.58%
inactive: viability, T/C [56] 47.8% | viability, T/C [57] 27.1% | viability, T/C [58] 55.8% | viability, T/C [59] 26.6% | viability, T/C [40] 12.1% | viability, T/C [60] 51.4% | viability, T/C [61] 26.6% | viability, T/C [62] 47.7% | viability, T/C [63] 23.7% | viability, T/C [64] 25.3%
1.01 nM: IC50 [3]
